In the supplement of paper PMC10307832:

How the values were obtained:
Assay in all cases: relative viability (nuclei count vs DMSO), 5 days (fraction); higher = more cells survive
[1] = compound: CC1=NN=C(O1)C2=NN=C(C=C2)N3CCC(CC3)OC4=C(C=CC(=C4)F)Cl + CC1(C)CCC(c2ccc(Cl)cc2)=C(CN2CCN(c3ccc(C(=O)NS(=O)(=O)c4ccc(N[C@H](CCN5CCOCC5)CSc5ccccc5)c(S(=O)(=O)C(F)(F)F)c4)cc3)CC2)C1 [Navitoclax] (partner 0.5 µM)
Method in brief: (§1)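 After 5 days of treatment, lung cancer cells in 1536-well plates were fixed and stained in a single step (final 0.05% Triton X-100, 1% formaldehyde, 1 ug/ml Hoechst) and their nuclei counted on 4× images. Treatment had been applied by pin tool the day after seeding as one drug alone or as a fixed anchor-drug dose with five library-drug doses (not always all listed) in √10 steps. Relative viability is the nuclei count of treated wells divided by that of vehicle wells, and values are medians of duplicate plates.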

[2] = compound: CC1=NN=C(O1)C2=NN=C(C=C2)N3CCC(CC3)OC4=C(C=CC(=C4)F)Cl + Nc1ncn([C@H]2C[C@H](O)[C@@H](CO)O2)c(=O)n1 [Decitabine] (partner 2 µM)
Method in brief: as §1

Tosedostat + Foretinib = compound: CC(C)C[C@@H](C(=O)N[C@H](C(=O)OC1CCCC1)c1ccccc1)[C@H](O)C(=O)NO [Tosedostat] + COc1cc2c(Oc3ccc(NC(=O)C4(C(=O)Nc5ccc(F)cc5)CC4)cc3F)ccnc2cc1OCCCN1CCOCC1 [Foretinib] (partner 0.25 µM)
Method in brief: as §1

Tosedostat + Decitabine = compound: CC(C)C[C@@H](C(=O)N[C@H](C(=O)OC1CCCC1)c1ccccc1)[C@H](O)C(=O)NO [Tosedostat] + Nc1ncn([C@H]2C[C@H](O)[C@@H](CO)O2)c(=O)n1 [Decitabine] (partner 2 µM)
Method in brief: as §1

| Cell Line | relative viability ([1]; first compound 0.253 µM) | relative viability ([1]; first compound 0.8 µM) | relative viability ([1]; first compound 2.53 µM) | relative viability ([1]; first compound 8 µM) | relative viability ([2]; first compound 0.253 µM) | relative viability ([2]; first compound 0.8 µM) | relative viability ([2]; first compound 2.53 µM) | relative viability ([2]; first compound 8 µM) | relative viability (Tosedostat + Foretinib; first compound 0.02 µM) | relative viability (Tosedostat + Foretinib; first compound 0.06325 µM) | relative viability (Tosedostat + Foretinib; first compound 0.2 µM) | relative viability (Tosedostat + Foretinib; first compound 0.6325 µM) | relative viability (Tosedostat + Foretinib; first compound 2 µM) | relative viability (Tosedostat + Decitabine; first compound 0.02 µM) | relative viability (Tosedostat + Decitabine; first compound 0.06325 µM) | relative viability (Tosedostat + Decitabine; first compound 0.2 µM) | relative viability (Tosedostat + Decitabine; first compound 0.6325 µM) | relative viability (Tosedostat + Decitabine; first compound 2 µM) |
| --- | --- | --- | --- | --- | --- | --- | --- | --- | --- | --- | --- | --- | --- | --- | --- | --- | --- | --- |
| NCI-H1793 | 0.45 | 0.397 | 0.371 | 0.282 | 0.468 | 0.482 | 0.343 | 0.452 | 0.559 | 0.789 | 0.742 | 0.629 | 0.637 | 0.429 | 0.435 | 0.407 | 0.222 | 0.346 |
| NCI-H1915 | 0.372 | 0.281 | 0.348 | 0.277 | 0.255 | 0.223 | 0.242 | 0.217 | 1.13 | 1.1 | 1.14 | 1.05 | 0.947 | 0.226 | 0.283 | 0.26 | 0.261 | 0.214 |
| NCI-H1944 | 0.637 | 0.665 | 0.733 | 0.672 | 0.306 | 0.288 | 0.321 | 0.309 | 0.984 | 0.787 | 0.864 | 0.822 | 0.773 | 0.456 | 0.431 | 0.458 | 0.416 | 0.39 |
| NCI-H1975 |  | 0.82 | 0.838 | 0.882 | 0.258 | 0.28 | 0.358 | 0.278 | 0.986 | 0.985 | 1.12 | 0.71 | 0.699 | 0.396 | 0.425 | 0.4 | 0.274 | 0.407 |
| NCI-H1993 | 0.804 | 0.824 | 0.876 | 0.878 | 0.554 | 0.551 | 0.484 | 0.647 | 0.72 | 0.565 | 0.793 | 0.675 | 0.534 | 0.487 | 0.673 | 0.576 | 0.511 | 0.525 |
| NCI-H2009 | 0.667 | 0.671 | 0.614 | 0.54 | 0.322 | 0.304 | 0.311 | 0.268 | 1.34 | 1.15 | 1.19 | 1.11 | 1.09 | 0.379 | 0.377 | 0.404 | 0.433 | 0.329 |
| NCI-H2023 | 0.486 | 0.557 | 0.565 | 0.442 | 0.191 | 0.185 | 0.186 | 0.176 | 0.782 | 0.779 | 0.764 |  | 0.808 | 0.23 | 0.202 | 0.223 | 0.167 | 0.183 |
| NCI-H2085 | 0.9 | 0.919 | 0.908 | 0.698 | 0.479 | 0.477 | 0.446 | 0.406 | 0.919 | 0.971 | 0.915 | 0.965 | 0.875 |  | 0.548 | 0.495 | 0.503 | 0.43 |
| NCI-H2087 | 0.701 | 0.713 | 0.724 | 0.63 | 0.238 | 0.265 | 0.268 | 0.271 | 1.3 | 1.13 | 1.06 | 0.98 | 0.941 | 0.37 | 0.23 | 0.24 | 0.224 | 0.225 |
| NCI-H2126 | 0.785 | 0.759 | 0.747 | 0.645 | 0.542 | 0.549 | 0.488 | 0.52 | 1.12 | 1.27 | 1.25 | 1.07 | 1.12 | 0.533 | 0.583 | 0.591 | 0.478 | 0.462 |
| NCI-H2170 | 0.464 | 0.421 | 0.556 | 0.417 | 0.366 | 0.323 | 0.357 | 0.321 | 1.01 | 1.04 | 0.958 | 0.959 | 1.05 | 0.454 | 0.499 | 0.491 | 0.421 | 0.453 |
